One may read the IC50 as the concentration that inhibits the measured activity by half. By Ki is commonly meant a measure of affinity in units of concentration, obtained from inhibition or displacement.

The test system of assay [1] is memory disturbed by Scopolamine. The assay can be described thus: Passive Avoidance of mice in the Shuttle Chamber, memory disturbed by Scopolamine. It counts as in vivo. As to conditions: aged male BALB/c mice; Scopolamine 0.3 mg/kg, injected 30 minutes before training; retest in 22-24 hours. The protocol:
A shuttle chamber (Ugo Basile, Italy) consisted of two sections was used. The walls of one section were opaque while the other section had transparent cover. The sections were connected through a hole which could be overlapped by vertical door. The floor was made of transverse metal bars on which DC current impulses could be fed. Experiments were carried out in aged male mice of BALB/c line weighing 20-24 grams.
On the first day of testing 30 minutes before training mice were injected intraintestinally with physiological solutions of Scopolamine (0.3 mg/kg) or Scopolamine in combination with active ingredient 1.1(1). Each group consisted of at least 8 animals. Animals were placed in light section, and latent period of the first entry into dark chamber was registered. Then vertical door was closed and the animal was punished by 0.6 mA DC current for 3 seconds. After that the animal was taken back to its homecage. In 22-24 hours the same animal was placed again in light section of the shuttle chamber and latent period of its first entry into dark section, the total time of its stay in light section and the number of entries into dark section, was registered. Each monitoring lasted for 5 minutes.
Testing was carried out during the day time in isolated laboratory using white noise at level of about 70 decibel above human hearing threshold. […]

For assay [2], the system named is memory disturbed by MK-801. Description: Passive Avoidance of mice in the Shuttle Chamber, memory disturbed by MK-801. As to conditions: MK-801 0.1 mg/kg, injected 30 minutes before training. It counts as in vivo. The protocol:
The testing was carried out as in example 7. On the first day of testing 30 minutes before training the mice were injected intraintestinally with physiological solution of MK-801 (0.1 mg/kg). Concurrently, physiological solution of MK-801 in combination with active ingredient 1.1(1) was injected intraintestinally to independent groups of mice before training.

For another assay, the target named is T1, serotonin 5-HT6 receptor (Homo sapiens, UniProt P50406).
T1 construct: expressed in transfected cells; host or cells: HEK 293
The assay can be described thus: Functional assay: antagonism of serotonin-induced intracellular cAMP (LANCE cAMP) in HEK 293 cells expressing 5-HT6 receptor. As to conditions: HEK 293 cells with expressed 5-HT6 receptor, read-out: IC50 of serotonin 5-HT6 receptor inhibition in the setting of functional assay. It counts as cell-based. The protocol:
Determination of antagonistic activity of compounds of general formula 1 towards 5-HT6 receptors. Compounds of general formula 1 were tested for their ability to prevent 5-HT6 receptors activation by serotonin. HEK 293 cells (cells of human embryo's kidney) with artificially expressed 5-HT6 receptor, activation of which by serotonin leads to increasing the concentration of intracellular cAMP were used. The content of intracellular cAMP was determined using reagent kit LANCE cAMP (PerkinElmer) according to the method described by the manufacturer of the kit [http://las.perkinelmer.com/content/Manuals/MAN_LANCEcAMP384KitUser.pdf]. Effectiveness of compounds was estimated by their ability to reduce the content of intracellular cAMP induced by serotonin. Table 3 presents ICso values of serotonin 5-HT6 receptor inhibition by antagonists of general formula 1 and 2 in the setting of functional assay. The data given testify their high antagonistic activity.
For orientation: Time-resolved FRET reads energy transfer from a long-lived donor to a nearby acceptor.

In assay [3] the test system is mice behavior in elevated plus maze. Description: Mice Behavior in the Elevated Plus Maze (anxiolytic action). The assay is classed as in vivo. The settings on record: five minutes. The text has this: Anxiolytic (tranquilizing) action of compounds of general formulas 1 and 2 in the test “Mice Behavior in the Elevated Plus Maze”. The length of each arm of the maze is 30 cm, width is 5 cm, and height of walls is 15 cm. Two opposite arms are closed from both sides and end faces by transparent walls, the other two arms are lit and opened. A mouse was placed in the center of maze, and for the next five minutes the number of entries into opened and closed arms and the time spent in each type of arms was registered. […] The animals usually avoid opened arms (the preference index is between 0.2 and 0.3). Compounds with tranquilizing action increase this index up to 0.5-0.6 or even more and reduce the number of defecations without changing the overall motion activity of the mice (the total number of entries to the arms).

For assay [4], the target named is T2, recombinant human 5-HT6 receptors (Homo sapiens, UniProt P50406).
T2 construct: expressed in transfected cells; host or cells: HeLa (membrane preparation)
Description: Competitive radioligand binding ([3H] Lysergic acid diethylamide) to membranes of HeLa cells expressing recombinant human 5-HT6 receptors. The settings on record: 1.5 nM [3H] Lysergic acid diethylamide, 120 min, 37° C., HeLa cell membranes; for IC50: read-out: IC50 of serotonin 5-HT6 receptor inhibition in the setting of competitive binding; for Ki: read-out: Ki of serotonin 5-HT6 receptor inhibition in the setting of competitive binding. The protocol: Activity determination of serotonin 5-HT6 receptor antagonists of the general formula 1 in the setting of competitive binding to serotonin 5-HT6 receptors.
Screening of disclosed compounds for their potential ability to interact with serotonin 5-HT6 receptors was carried out by method of radioligand binding. For this purpose membrane species were prepared from expressing recombinant human 5-HT6 receptors HeLa cells by means of their homogenization in glass homogenizer with subsequent separation of plasmatic membranes from cell nucli, mitochondria's and cell wreckages by differential centrifugation. […] Mol Pharmacol. 43:320-327, 1993]. In the preferred embodiment membrane preparations were incubated with radioligand (1.5 nM [^3H] Lysergic acid diethylamide) without and in the presence of investigated compounds for 120 min at 37° C. in medium consisting of […], pH 7.4, 150 mM NaCl, 2 mM Ascorbic Acid, 0.001% BSA. After incubation the samples were filtered in vacuo on glass-microfiber filters G/F (Millipor, USA), filters were washed three times with cold solution of medium and radioactivity was measured by scintillation counter MicroBeta 340 (PerkinElmer, USA). Nonspecific binding which made up 30% of overall binding was determined by incubation of membrane preparations with radioligand in the presence of 5 μM Serotonin (5-HT). Methiothepin was used as positive control. Binding of tested compounds with the receptor was determined by their ability to displace the radioligand and expressed in percent of displacement. The percent of displacement was calculated according to the following equation:
[formula] wherein: TA—was overall radioactivity in the presence of radioligand only, CA—was radioactivity in the presence of radioligand and tested compound and NA—was radioactivity in the presence of radioligand and Serotonin (5 μM).
Table 4 presents the test results for some serotonin 5-HT6 receptor antagonists of general formulas 1 and 2 in the setting of competitive binding to serotonin 5-HT6 receptors, testifying their high activity towards serotonin 5-HT6 receptors.

Structures are written as SMILES.

T1 sequence (P50406 whole entry): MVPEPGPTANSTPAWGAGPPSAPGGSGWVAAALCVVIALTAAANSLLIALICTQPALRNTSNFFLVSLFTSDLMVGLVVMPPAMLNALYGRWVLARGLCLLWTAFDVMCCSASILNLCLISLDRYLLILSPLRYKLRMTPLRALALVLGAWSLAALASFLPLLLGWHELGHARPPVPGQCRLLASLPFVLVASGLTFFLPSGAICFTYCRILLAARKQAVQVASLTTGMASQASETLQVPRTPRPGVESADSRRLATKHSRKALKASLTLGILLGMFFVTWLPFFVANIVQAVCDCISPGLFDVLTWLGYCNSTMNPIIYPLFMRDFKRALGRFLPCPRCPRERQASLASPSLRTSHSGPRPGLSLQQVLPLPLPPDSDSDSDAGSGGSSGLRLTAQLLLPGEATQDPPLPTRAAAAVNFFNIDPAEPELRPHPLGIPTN
T2 sequence (P50406 whole entry): as above

Consider `CNc1nn2c3c(cnc2c1S(=O)(=O)c1ccccc1)CCC3` [1.1(1), 2-methylamino-3-(phenylsulfonyl)-7,8-dihydro-6H-cyclopenta[e]pyrazolo[1,5-a]pyrimidine], for which the “Nootropic action (enhancement of memory disturbed by Scopolamine)” value in assay [1] was “nootropic action”. Also, the “Nootropic action (enhancement of memory disturbed by MK-801)” value in assay [2] was “nootropic effect”. Also, on serotonin 5-HT6 receptor, the IC50 stood at 4.8 nM. Further, the “Anxiolytic (tranquilizing) action” value in assay [3] is “anxiolytic (tranquilizing) action which is comparable with the activity of Buspirone and Lorasepam”. In assay [4], the IC50 is 0.157 nM and the inhibition constant Ki came to 0.073 nM.
For the molecule `CNc1nn2c3c(c(C)nc2c1S(=O)(=O)c1ccccc1)CCC3` [1.1(3), 5-methyl-2-methylamino-3-(phenylsulfonyl)-7,8-dihydro-6H-cyclopenta[e]pyrazolo[1,5-a]pyrimidine], the half-maximal inhibitory concentration (IC50) at serotonin 5-HT6 receptor amounted to 7 nM. For the same molecule, in assay [4], the IC50 worked out at 0.436 nM and the inhibitory constant (Ki) amounted to 0.202 nM.
With `CNc1nn2c3c(cnc2c1S(=O)(=O)c1ccccc1)CCCC3` [1.2(1), 2-methylamino-3-(phenylsulfonyl)-6,7,8,9-tetrahydrocyclohexa[e]pyrazolo[1,5-a]pyrimidine], the 50% inhibitory concentration (IC50) at serotonin 5-HT6 receptor was found to be 4.4 nM; in assay [4], 0.241 nM. In addition, the Ki in assay [4] stood at 0.112 nM.
For `CNc1nn2c3c(c(C)nc2c1S(=O)(=O)c1ccccc1)CCCC3` [1.2(3), 5-methyl-2-methylamino-(3-phenylsulfonyl)-6,7,8,9-tetrahydrocyclohexa[e]pyrazolo[1,5-a]pyrimidine], in assay [4], the 50% inhibitory concentration (IC50) came out at 1.05 nM and the inhibition constant (Ki) was found to be 0.49 nM.
For `CNc1nn2cc3c(nc2c1S(=O)(=O)c1ccccc1)CCCC3` [2(1)], the half-maximal inhibitory concentration (IC50) on serotonin 5-HT6 receptor is 7.5 nM. For the same molecule, in assay [4], the IC50 stood at 1.07 nM and the Ki was 0.499 nM.
Turning to `CNc1nn2c(C)c3c(nc2c1S(=O)(=O)c1ccccc1)CCCC3` [2(2)], the IC50 on serotonin 5-HT6 receptor was 15.5 nM; in assay [4] it was 0.551 nM. The inhibition constant Ki in assay [4] stood at 0.256 nM.

These data come from patent publication US8471009B2, “(EN) 2-alkylamino-3-arylsulfonyl-cycloalcano [e OR d] pyrazolo [1,5-A]pyrimidines / antagonists of serotonin 5-HT6 receptors, methods for the production and the use thereof” (priority 2008, dated 2013).
